Earlier results as cited in US20070269473A1, “Microbial Encapsulation” (priority 2004, published 2007).

Conditions: octanol/water; carriers

Compound | logP(o/w)
1,3,5-trimethyl-Benzene (Mesitylene) | 3.6
Acetophenone (1-phenyl-Ethanone) | 1.7
COC(=O)c1ccccc1 [Methyl benzoate] | 1.8
